Measurements reported in ChEMBL document CHEMBL3132848, “Glycosidase inhibition by novel guanidinium and urea iminosugar derivatives” (Medchemcomm, 2013).

Experiments:
[1] = Inhibition of naringinase in Penicillium decumbens after 30 mins by spectrophotometric analysis
[2] = Inhibition of beta-mannosidase in Roman snail after 30 mins by spectrophotometric analysis; parameters: species or system Helix pomatia
[3] = Inhibition of alpha-mannosidase in jack bean after 30 mins by spectrophotometric analysis; parameters: species or system Canavalia ensiformis
[4] = Inhibition of beta-glucosidase in almond after 30 mins by spectrophotometric analysis; parameters: species or system Prunus dulcis
[5] = Inhibition of alpha-glucosidase in yeast after 30 mins by spectrophotometric analysis; parameters: species or system Saccharomyces cerevisiae
[6] = biological target: T1, Beta-galactosidase (Bos taurus, UniProt Q58D55); assay: Inhibition of beta-galactosidase in bovine liver after 30 mins by spectrophotometric analysis
T1 sequence (Q58D55 whole entry): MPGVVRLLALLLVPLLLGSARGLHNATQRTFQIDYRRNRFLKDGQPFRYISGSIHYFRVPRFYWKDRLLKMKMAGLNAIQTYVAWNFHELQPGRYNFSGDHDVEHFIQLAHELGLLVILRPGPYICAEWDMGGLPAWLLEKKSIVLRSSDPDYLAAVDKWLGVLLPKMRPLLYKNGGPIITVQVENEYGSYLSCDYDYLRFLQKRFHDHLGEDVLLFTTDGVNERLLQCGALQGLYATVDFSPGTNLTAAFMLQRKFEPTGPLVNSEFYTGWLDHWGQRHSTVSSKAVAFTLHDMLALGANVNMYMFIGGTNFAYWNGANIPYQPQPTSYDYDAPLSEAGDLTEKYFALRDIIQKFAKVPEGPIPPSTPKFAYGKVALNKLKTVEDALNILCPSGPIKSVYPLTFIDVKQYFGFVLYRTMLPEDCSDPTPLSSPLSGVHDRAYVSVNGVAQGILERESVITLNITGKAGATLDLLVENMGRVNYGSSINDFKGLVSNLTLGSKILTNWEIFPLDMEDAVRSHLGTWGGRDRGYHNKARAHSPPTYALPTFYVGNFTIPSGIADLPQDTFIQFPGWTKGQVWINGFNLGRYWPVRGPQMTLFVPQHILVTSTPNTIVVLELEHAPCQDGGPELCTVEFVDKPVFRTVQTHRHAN

[7] = biological target: Alpha-galactosidase (Coffea arabica, UniProt Q42656); assay: Inhibition of alpha-galactosidase in green coffee bean after 30 mins by spectrophotometric analysis
Chain of Alpha-galactosidase (Q42656 whole entry): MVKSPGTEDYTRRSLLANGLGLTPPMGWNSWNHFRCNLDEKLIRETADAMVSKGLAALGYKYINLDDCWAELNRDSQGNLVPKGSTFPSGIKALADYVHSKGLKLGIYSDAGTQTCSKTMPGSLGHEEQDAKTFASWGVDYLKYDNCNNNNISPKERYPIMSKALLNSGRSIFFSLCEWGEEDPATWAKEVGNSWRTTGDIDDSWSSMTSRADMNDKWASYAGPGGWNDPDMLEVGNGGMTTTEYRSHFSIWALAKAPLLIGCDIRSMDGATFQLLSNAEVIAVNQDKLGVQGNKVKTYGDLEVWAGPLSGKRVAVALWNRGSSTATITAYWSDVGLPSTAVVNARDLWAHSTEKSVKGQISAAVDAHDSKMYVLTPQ

| IC50 [1] [µM] | IC50 [2] [µM] | IC50 [3] [µM] | IC50 [4] [µM] | IC50 [5] [µM] | IC50 [6] [µM] | IC50 [7] [µM] | Structure (SMILES) |
| --- | --- | --- | --- | --- | --- | --- | --- |
| 6 | > 1000 | > 1000 | 59 | 134 | > 1000 | 251 | CCCCCCN1C[C@H](O)[C@@H](O)[C@H](O)[C@H]1CO |
| > 1000 | > 1000 | > 1000 | > 1000 | > 1000 | 27 | > 1000 | CCCCNC(=O)N1C[C@H](O)[C@@H](O)[C@H](O)[C@H]1CO |
| 645 |  | > 1000 | 457 | 133 | > 1000 | 540 | N=C(NCCO)N1C[C@H](O)[C@@H](O)[C@H](O)[C@H]1CO |
| 33 | > 1000 | > 1000 | 312 | 167 |  |  | OC[C@H]1NC[C@H](O)[C@@H](O)[C@@H]1O [DUVOGLUSTAT] |
| 172 |  | > 1000 | > 1000 | 251 | > 1000 | > 1000 | N=C(NCCOCCO)N1C[C@H](O)[C@@H](O)[C@H](O)[C@H]1CO |
| > 1000 | 408 | 113 | 41 | 20 | 15 | 18 | CCCCNC(=N)N1C[C@H](O)[C@@H](O)[C@H](O)[C@H]1CO |
| 33 |  | > 1000 | 67 | > 1000 | 6.2 | > 1000 | N=C(NCCCc1ccccc1)N1C[C@H](O)[C@@H](O)[C@H](O)[C@H]1CO |
| 67 |  | 55 | 25 | 31 | 2.6 | 23 | CCCCCCCCNC(=N)N1C[C@H](O)[C@@H](O)[C@H](O)[C@H]1CO |
| 27 |  | > 1000 | 4.3 | > 1000 | 5.1 | > 1000 | N=C(NCc1ccccc1)N1C[C@H](O)[C@@H](O)[C@H](O)[C@H]1CO |
| 22 |  | > 1000 | 489 | 131 | 5.4 | > 1000 | N=C(NCCCOCC12CC3CC(CC(C3)C1)C2)N1C[C@H](O)[C@@H](O)[C@H](O)[C@H]1CO |
